Results taken from US20260021088A1, “METHODS OF USING ANTI-CD79b IMMUNOCONJUGATES TO TREAT FOLLICULAR LYMPHOMA” (Genentech, Inc., priority 2019, published 2026).

Key:
[1] = system: patients with relapsed or refractory (R/R) FL; assay: Phase Ib/II study, dose-escalation phase: dose-limiting toxicities and recommended Phase II dose
Excerpt: The purpose of the FL dose-escalation phase was to identify the RP2D for polatuzumab vedotin and the RP2D for lenalidomide when combined with a fixed dose of obinutuzumab as induction treatment.
Patients were closely monitored for adverse events during the dose limiting toxicity (DLT) assessment window, defined as the first treatment cycle (from Day 1 of Cycle 1 to Day 1 of Cycle 2). Patients experiencing a DLT during the DLT assessment period continued receiving study treatment once the event resolved if determined it was safe to continue treatment and there was potential for clinical benefit. Patients who discontinued from the study prior to completing the DLT assessment window for reasons other than a DLT were considered non-evaluable for dose-escalation decisions and RP2D assessments and were replaced by an additional patient at that same dose level. Patients who missed one or more doses of polatuzumab vedotin or obinutuzumab or five consecutive daily doses of lenalidomide during the DLT assessment window for reasons other than a DLT were also replaced and considered non-evaluable for dose-escalation decisions. Patients who received supportive care during the DLT assessment window that could confound the evaluation of DLTs were replaced at the discretion of the Medical Monitor.
A standard 3+3 dose-escalation schema was used. […]

[2] = system: patients with relapsed or refractory (R/R) FL; conditions: for Dose reductions: n = 56
Excerpt: This Phase Ib/II, open label, multicenter, non-randomized, dose-escalation study evaluated the safety, efficacy, and pharmacokinetics of induction treatment consisting of obinutuzumab (GA101 or G) in combination with polatuzumab vedotin (anti-CD79b(huMA79b.v28)-MC-vc-PAB-MMAE ADC (DCDS4501A) or Pola) and lenalidomide (Len) (G+Pola+Len) in patients with relapsed or refractory (R/R) FL, followed by post induction treatment with obinutuzumab in combination with lenalidomide. The study included an initial dose-escalation phase, followed by an expansion phase during which polatuzumab vedotin and lenalidomide were given at their recommended Phase II doses (RP2Ds).
The primary efficacy endpoint was based on IRC assessment of response. Patients were monitored closely for adverse events throughout the study and for at least 90 days after the last dose of study treatment. To characterize the pharmacokinetic (PK) properties of obinutuzumab, polatuzumab vedotin, and lenalidomide, blood samples were obtained at various timepoints before and during study treatment administration
Safety assessments consist of monitoring and recording adverse events, including serious adverse events and non-serious adverse events of special interest, performing protocol-specified safety laboratory assessments, measuring protocol-specified vital signs, and conducting other protocol-specified tests that were deemed critical to the safety evaluation of the study.
The safety analyses include all treated patients (i.e., patients who received any amount of study treatment). Safety is assessed through summaries of adverse events and changes from baseline in laboratory test results, shift-tables of ECGs findings, and vital signs. All adverse events occurring on or after first study treatment are summarized by mapped term, appropriate thesaurus levels, and NCI CTCAE, Version 4.0 grade. All serious adverse events, adverse events of special interest, and selected adverse events are summarized and listed. Deaths reported during the treatment period and during post-treatment follow-up are listed and summarized.
Adverse Events: NCI CTCAE, Version 4.0 is used for assessing adverse event severity. All adverse events are reported until 90 days after the last dose of study treatment. After this period, the investigator reports any serious adverse events that are believed to be related to prior study treatment and events of second malignancies for patients who received obinutuzumab. Grade 3 and 4 infections (both related and unrelated) are reported until up to 2 years after the last dose of obinutuzumab.
Infusion-Related Reactions: Adverse events that occur during or within 24 hours after the end of study treatment infusion and are judged to be related to infusion of any of the study treatment components are captured as a diagnosis (e.g., “infusion-related reaction”). If a patient experiences both a local and systemic reaction to the same dose of study treatment, each reaction is recorded separately, with signs and symptoms also recorded separately.

[3] = Example 1 interim, n = 52, given as G+Pola+Len

Molecule | Recommended Phase II dose (RP2D) ([1]; combined with polatuzumab vedotin and fixed dose of 1000 mg obinutuzumab) | AEs leading to lenalidomide dose interruptions [2, 3] | AEs leading to lenalidomide dose reduction [2, 3] | Patients who required lenalidomide dose reductions ([2]; Example 2, during maintenance) | Recommended Phase II dose (RP2D) ([1]; combined with lenalidomide and fixed dose of 1000 mg obinutuzumab) | Dose reductions ([2]; Example 2, given as G+Pola+Len)
Nc1cccc2c1CN(C1CCC(=O)NC1=O)C2=O (stereo not shown) [lenalidomide, 3-(4-amino-1-oxo-2,3-dihydro-1H-isoindol-2-yl)piperidine-2,6-dione] | 20 mg | 52% | 31% | Two |  | 
polatuzumab vedotin |  |  |  |  | 1.4 mg/kg | no dose reductions
obinutuzumab: anti-CD20 antibody; afucosylated glyco-engineered humanized B-Ly1 antibody |  |  |  |  |  | no dose reductions
